Test results published in PubChem BioAssay (NCI).
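These data come from cells grown in 96-well plates and exposed to compound for 48 hours at five concentrations. Abbreviation: GI50, concentration required for 50% inhibition of growth. TGI denotes the concentration required for complete inhibition of growth.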

What was measured:
Assay in all cases: DTP human tumour cell line panel, 48 h
786-0 renal = tested on: 786-0 renal
A498 renal = tested on: A498 renal
A549 NSCLC = tested on: A549 NSCLC
ACHN renal = tested on: ACHN renal
BT-549 breast = tested on: BT-549 breast
CAKI-1 renal = tested on: CAKI-1 renal
CCRF-CEM leukemia = tested on: CCRF-CEM leukemia
COLO 205 colon = tested on: COLO 205 colon
DU-145 prostate = tested on: DU-145 prostate
HCC-2998 colon = tested on: HCC-2998 colon
HCT-116 colon = tested on: HCT-116 colon
HCT-15 colon = tested on: HCT-15 colon
HL-60(TB) leukemia = tested on: HL-60(TB) leukemia
HOP-62 NSCLC = tested on: HOP-62 NSCLC
HOP-92 NSCLC = tested on: HOP-92 NSCLC
HS 578T breast = tested on: HS 578T breast
HT29 colon = tested on: HT29 colon
IGROV1 ovarian = tested on: IGROV1 ovarian
K-562 leukemia = tested on: K-562 leukemia
KM12 colon = tested on: KM12 colon
LOX IMVI melanoma = tested on: LOX IMVI melanoma
M14 melanoma = tested on: M14 melanoma
MALME-3M melanoma = tested on: MALME-3M melanoma
MCF7 breast = tested on: MCF7 breast
MDA-MB-231 breast = tested on: MDA-MB-231 breast
MDA-MB-435 = tested on: MDA-MB-435
MOLT-4 leukemia = tested on: MOLT-4 leukemia
NCI-H23 lung = tested on: NCI-H23 lung
NCI-H460 lung = tested on: NCI-H460 lung
NCI-H522 lung = tested on: NCI-H522 lung
NCI/ADR-RES ovarian = tested on: NCI/ADR-RES ovarian
OVCAR-3 ovarian = tested on: OVCAR-3 ovarian
OVCAR-4 ovarian = tested on: OVCAR-4 ovarian
OVCAR-5 ovarian = tested on: OVCAR-5 ovarian
OVCAR-8 ovarian = tested on: OVCAR-8 ovarian
PC-3 prostate = tested on: PC-3 prostate
RPMI-8226 leukemia = tested on: RPMI-8226 leukemia
RXF 393 renal = tested on: RXF 393 renal
SF-268 CNS = tested on: SF-268 CNS
SF-295 CNS = tested on: SF-295 CNS
SF-539 CNS = tested on: SF-539 CNS
SK-MEL-2 melanoma = tested on: SK-MEL-2 melanoma
SK-MEL-28 melanoma = tested on: SK-MEL-28 melanoma
SK-MEL-5 melanoma = tested on: SK-MEL-5 melanoma
SK-OV-3 ovarian = tested on: SK-OV-3 ovarian
SN12C renal = tested on: SN12C renal
SNB-19 CNS = tested on: SNB-19 CNS
SNB-75 CNS = tested on: SNB-75 CNS
SR leukemia = tested on: SR leukemia
SW-620 colon = tested on: SW-620 colon
T-47D breast = tested on: T-47D breast
TK-10 renal = tested on: TK-10 renal
U251 CNS = tested on: U251 CNS
UACC-257 melanoma = tested on: UACC-257 melanoma
UACC-62 melanoma = tested on: UACC-62 melanoma
UO-31 renal = tested on: UO-31 renal
EKVX NSCLC = tested on: EKVX NSCLC
NCI-H226 lung = tested on: NCI-H226 lung

## Cc1cccc(-n2cnc3cc(C(=O)N4CCCCC4)ccc32)c1
786-0 renal
  GI50: > 100 µM
  TGI: > 100 µM
A498 renal
  GI50: 51.3 µM
  TGI: > 100 µM
A549 NSCLC
  GI50: 85.5 µM
  TGI: > 100 µM
ACHN renal
  GI50: > 100 µM
  TGI: > 100 µM
BT-549 breast
  GI50: 97 µM
  TGI: > 100 µM
CAKI-1 renal
  GI50: > 100 µM
  TGI: > 100 µM
CCRF-CEM leukemia
  GI50: > 100 µM
  TGI: > 100 µM
COLO 205 colon
  GI50: 49.9 µM
  TGI: > 100 µM
DU-145 prostate
  GI50: > 100 µM
  TGI: > 100 µM
HCC-2998 colon
  GI50: > 100 µM
  TGI: > 100 µM
HCT-116 colon
  GI50: > 100 µM
  TGI: > 100 µM
HCT-15 colon
  GI50: 56.6 µM
  TGI: > 100 µM
HL-60(TB) leukemia
  GI50: > 100 µM
  TGI: > 100 µM
HOP-62 NSCLC
  GI50: > 100 µM
  TGI: > 100 µM
HOP-92 NSCLC
  GI50: 41.4 µM
  TGI: > 100 µM
HS 578T breast
  GI50: 72.7 µM
  TGI: > 100 µM
HT29 colon
  GI50: > 100 µM
  TGI: > 100 µM
IGROV1 ovarian
  GI50: > 100 µM
  TGI: > 100 µM
K-562 leukemia
  GI50: 59.9 µM
  TGI: > 100 µM
KM12 colon
  GI50: > 100 µM
  TGI: > 100 µM
LOX IMVI melanoma
  GI50: > 100 µM
  TGI: > 100 µM
M14 melanoma
  GI50: > 100 µM
  TGI: > 100 µM
MALME-3M melanoma
  GI50: > 100 µM
  TGI: > 100 µM
MCF7 breast
  GI50: 48.4 µM
  TGI: > 100 µM
MDA-MB-231 breast
  GI50: 92.2 µM
  TGI: > 100 µM
MDA-MB-435
  GI50: > 100 µM
  TGI: > 100 µM
MOLT-4 leukemia
  GI50: > 100 µM
  TGI: > 100 µM
NCI-H23 lung
  GI50: > 100 µM
  TGI: > 100 µM
NCI-H460 lung
  GI50: > 100 µM
  TGI: > 100 µM
NCI-H522 lung
  GI50: > 100 µM
  TGI: > 100 µM
NCI/ADR-RES ovarian
  GI50: 37.9 µM
  TGI: > 100 µM
OVCAR-3 ovarian
  GI50: 54.9 µM
  TGI: > 100 µM
OVCAR-4 ovarian
  GI50: 46 µM
  TGI: > 100 µM
OVCAR-5 ovarian
  GI50: > 100 µM
  TGI: > 100 µM
OVCAR-8 ovarian
  GI50: 91.9 µM
  TGI: > 100 µM
PC-3 prostate
  GI50: > 100 µM
  TGI: > 100 µM
RPMI-8226 leukemia
  GI50: > 100 µM
  TGI: > 100 µM
RXF 393 renal
  GI50: 23.9 µM
  TGI: > 100 µM
SF-268 CNS
  GI50: > 100 µM
  TGI: > 100 µM
SF-295 CNS
  GI50: 65.1 µM
  TGI: > 100 µM
SF-539 CNS
  GI50: 85.5 µM
  TGI: > 100 µM
SK-MEL-2 melanoma
  GI50: > 100 µM
  TGI: > 100 µM
SK-MEL-28 melanoma
  GI50: 59.1 µM
  TGI: > 100 µM
SK-MEL-5 melanoma
  GI50: 20 µM
  TGI: 53.1 µM
SK-OV-3 ovarian
  GI50: > 100 µM
  TGI: > 100 µM
SN12C renal
  GI50: > 100 µM
  TGI: > 100 µM
SNB-19 CNS
  GI50: 48.8 µM
  TGI: > 100 µM
SNB-75 CNS
  GI50: 30 µM
  TGI: > 100 µM
SR leukemia
  GI50: > 100 µM
  TGI: > 100 µM
SW-620 colon
  GI50: > 100 µM
  TGI: > 100 µM
T-47D breast
  GI50: 28 µM
  TGI: 93.1 µM
TK-10 renal
  GI50: > 100 µM
  TGI: > 100 µM
U251 CNS
  GI50: 62.6 µM
  TGI: > 100 µM
UACC-257 melanoma
  GI50: > 100 µM
  TGI: > 100 µM
UACC-62 melanoma
  GI50: 48 µM
  TGI: > 100 µM
UO-31 renal
  GI50: 29.8 µM
  TGI: > 100 µM

## O=C1c2ccccc2S(=O)(=O)N1CSC(=S)N1CCOCC1
786-0 renal
  GI50: > 100 µM
  TGI: > 100 µM
A498 renal
  GI50: > 100 µM
  TGI: > 100 µM
A549 NSCLC
  GI50: > 100 µM
  TGI: > 100 µM
ACHN renal
  GI50: > 100 µM
  TGI: > 100 µM
BT-549 breast
  GI50: > 100 µM
  TGI: > 100 µM
CAKI-1 renal
  GI50: > 100 µM
  TGI: > 100 µM
CCRF-CEM leukemia
  GI50: 7.9 µM
  TGI: 36.1 µM
COLO 205 colon
  GI50: 62.4 µM
  TGI: > 100 µM
DU-145 prostate
  GI50: > 100 µM
  TGI: > 100 µM
EKVX NSCLC
  GI50: > 100 µM
  TGI: > 100 µM
HCC-2998 colon
  GI50: > 100 µM
  TGI: > 100 µM
HCT-116 colon
  GI50: > 100 µM
  TGI: > 100 µM
HCT-15 colon
  GI50: > 100 µM
  TGI: > 100 µM
HL-60(TB) leukemia
  GI50: 4.84 µM
  TGI: 49.9 µM
HOP-62 NSCLC
  GI50: > 100 µM
  TGI: > 100 µM
HS 578T breast
  GI50: > 100 µM
  TGI: > 100 µM
HT29 colon
  GI50: 26.1 µM
  TGI: > 100 µM
IGROV1 ovarian
  GI50: > 100 µM
  TGI: > 100 µM
K-562 leukemia
  GI50: > 100 µM
  TGI: > 100 µM
KM12 colon
  GI50: > 100 µM
  TGI: > 100 µM
LOX IMVI melanoma
  GI50: > 100 µM
  TGI: > 100 µM
M14 melanoma
  GI50: 31.1 µM
  TGI: 89.6 µM
MALME-3M melanoma
  GI50: > 100 µM
  TGI: > 100 µM
MCF7 breast
  GI50: 49 µM
  TGI: > 100 µM
MDA-MB-231 breast
  GI50: > 100 µM
  TGI: > 100 µM
MDA-MB-435
  GI50: > 100 µM
  TGI: > 100 µM
MOLT-4 leukemia
  GI50: 19 µM
  TGI: > 100 µM
NCI-H226 lung
  GI50: > 100 µM
  TGI: > 100 µM
NCI-H23 lung
  GI50: > 100 µM
  TGI: > 100 µM
NCI-H460 lung
  GI50: 70.1 µM
  TGI: > 100 µM
NCI-H522 lung
  GI50: 24.8 µM
  TGI: > 100 µM
NCI/ADR-RES ovarian
  GI50: > 100 µM
  TGI: > 100 µM
OVCAR-3 ovarian
  GI50: > 100 µM
  TGI: > 100 µM
OVCAR-4 ovarian
  GI50: > 100 µM
  TGI: > 100 µM
OVCAR-5 ovarian
  GI50: > 100 µM
  TGI: > 100 µM
OVCAR-8 ovarian
  GI50: > 100 µM
  TGI: > 100 µM
PC-3 prostate
  GI50: 38.3 µM
  TGI: > 100 µM
RPMI-8226 leukemia
  GI50: 15.8 µM
  TGI: 51.3 µM
RXF 393 renal
  GI50: > 100 µM
  TGI: > 100 µM
SF-268 CNS
  GI50: > 100 µM
  TGI: > 100 µM
SF-295 CNS
  GI50: > 100 µM
  TGI: > 100 µM
SF-539 CNS
  GI50: > 100 µM
  TGI: > 100 µM
SK-MEL-2 melanoma
  GI50: > 100 µM
  TGI: > 100 µM
SK-MEL-28 melanoma
  GI50: 61.8 µM
  TGI: > 100 µM
SK-MEL-5 melanoma
  GI50: 58.1 µM
  TGI: > 100 µM
SK-OV-3 ovarian
  GI50: > 100 µM
  TGI: > 100 µM
SN12C renal
  GI50: > 100 µM
  TGI: > 100 µM
SNB-19 CNS
  GI50: > 100 µM
  TGI: > 100 µM
SNB-75 CNS
  GI50: 65.4 µM
  TGI: > 100 µM
SR leukemia
  GI50: 17.4 µM
  TGI: 47 µM
SW-620 colon
  GI50: 69.1 µM
  TGI: > 100 µM
T-47D breast
  GI50: > 100 µM
  TGI: > 100 µM
TK-10 renal
  GI50: > 100 µM
  TGI: > 100 µM
U251 CNS
  GI50: > 100 µM
  TGI: > 100 µM
UACC-257 melanoma
  GI50: > 100 µM
  TGI: > 100 µM
UACC-62 melanoma
  GI50: > 100 µM
  TGI: > 100 µM
UO-31 renal
  GI50: > 100 µM
  TGI: > 100 µM
